According to ChEMBL document CHEMBL3882729, “Receptor-type kinase modulators and methods of use” (2009):

What was measured:
Ephrin type-A receptor 2 = Ephrin type-A receptor 2 (Homo sapiens, UniProt P29317); assay: Inhibition of recombinant human N-terminal His6-tagged EphA2 (N598 to R890 residues) expressed in baculovirus using poly-EY as substrate after 180 mins by luciferase coupled chemiluminescence assay
[1] = target: Vascular endothelial growth factor receptor 2 (Homo sapiens, UniProt P35968); assay: Inhibition of recombinant human N-terminal GST-fused KDR (D807 to V1356 residues) expressed in baculovirus infected […] insect Sf9 cells using poly-EY as substrate after 240 mins by luciferase coupled chemiluminescence assay
Chain of Vascular endothelial growth factor receptor 2 (P35968 whole entry, the tested form may be a part): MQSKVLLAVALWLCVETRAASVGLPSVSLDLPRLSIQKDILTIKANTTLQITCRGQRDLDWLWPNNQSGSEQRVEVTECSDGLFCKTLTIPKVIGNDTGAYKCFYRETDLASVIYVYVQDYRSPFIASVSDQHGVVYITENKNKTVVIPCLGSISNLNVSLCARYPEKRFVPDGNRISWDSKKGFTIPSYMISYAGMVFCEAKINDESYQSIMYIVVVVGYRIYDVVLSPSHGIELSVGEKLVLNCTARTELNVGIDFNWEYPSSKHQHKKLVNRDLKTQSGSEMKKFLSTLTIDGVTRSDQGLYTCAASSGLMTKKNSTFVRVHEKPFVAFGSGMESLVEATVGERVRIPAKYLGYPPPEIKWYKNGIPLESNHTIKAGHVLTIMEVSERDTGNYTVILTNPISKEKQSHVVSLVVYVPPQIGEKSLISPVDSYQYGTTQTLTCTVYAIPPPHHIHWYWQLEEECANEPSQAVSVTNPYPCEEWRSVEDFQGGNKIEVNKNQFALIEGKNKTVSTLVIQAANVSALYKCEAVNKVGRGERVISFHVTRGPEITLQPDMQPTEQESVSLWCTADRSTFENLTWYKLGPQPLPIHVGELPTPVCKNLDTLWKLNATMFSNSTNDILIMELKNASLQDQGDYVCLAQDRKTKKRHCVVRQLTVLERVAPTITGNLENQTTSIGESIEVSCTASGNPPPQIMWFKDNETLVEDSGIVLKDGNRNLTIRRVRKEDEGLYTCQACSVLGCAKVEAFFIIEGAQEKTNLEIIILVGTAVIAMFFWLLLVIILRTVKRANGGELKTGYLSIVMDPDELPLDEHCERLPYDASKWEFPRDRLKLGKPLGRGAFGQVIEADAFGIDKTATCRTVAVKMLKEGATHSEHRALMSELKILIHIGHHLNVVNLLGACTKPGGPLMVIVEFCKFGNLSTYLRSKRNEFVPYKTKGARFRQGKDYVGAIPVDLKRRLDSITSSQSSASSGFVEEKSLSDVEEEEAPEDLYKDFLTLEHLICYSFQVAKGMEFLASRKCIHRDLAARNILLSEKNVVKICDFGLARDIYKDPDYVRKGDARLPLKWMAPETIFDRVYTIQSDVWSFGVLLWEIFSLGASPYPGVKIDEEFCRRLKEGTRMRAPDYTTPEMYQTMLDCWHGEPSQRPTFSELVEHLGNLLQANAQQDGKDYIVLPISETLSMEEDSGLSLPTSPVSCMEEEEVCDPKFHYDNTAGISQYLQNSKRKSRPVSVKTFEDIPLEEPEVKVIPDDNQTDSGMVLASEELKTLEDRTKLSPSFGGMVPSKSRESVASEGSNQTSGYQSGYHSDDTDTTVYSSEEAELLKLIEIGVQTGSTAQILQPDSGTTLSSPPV

[2] = target: Receptor tyrosine-protein kinase erbB-2 (Homo sapiens, UniProt P04626); assay: Inhibition of recombinant human N-terminal GST His6-tagged thrombin cleavage site-fused ErbB2 kinase domain (Q679 to V1255 residues) expressed in baculovirus infected insect Sf9 cells using biotinylated poly-EY as substrate after 60 mins by alphascreen assay
Chain of Receptor tyrosine-protein kinase erbB-2 (P04626 whole entry, the tested form may be a part): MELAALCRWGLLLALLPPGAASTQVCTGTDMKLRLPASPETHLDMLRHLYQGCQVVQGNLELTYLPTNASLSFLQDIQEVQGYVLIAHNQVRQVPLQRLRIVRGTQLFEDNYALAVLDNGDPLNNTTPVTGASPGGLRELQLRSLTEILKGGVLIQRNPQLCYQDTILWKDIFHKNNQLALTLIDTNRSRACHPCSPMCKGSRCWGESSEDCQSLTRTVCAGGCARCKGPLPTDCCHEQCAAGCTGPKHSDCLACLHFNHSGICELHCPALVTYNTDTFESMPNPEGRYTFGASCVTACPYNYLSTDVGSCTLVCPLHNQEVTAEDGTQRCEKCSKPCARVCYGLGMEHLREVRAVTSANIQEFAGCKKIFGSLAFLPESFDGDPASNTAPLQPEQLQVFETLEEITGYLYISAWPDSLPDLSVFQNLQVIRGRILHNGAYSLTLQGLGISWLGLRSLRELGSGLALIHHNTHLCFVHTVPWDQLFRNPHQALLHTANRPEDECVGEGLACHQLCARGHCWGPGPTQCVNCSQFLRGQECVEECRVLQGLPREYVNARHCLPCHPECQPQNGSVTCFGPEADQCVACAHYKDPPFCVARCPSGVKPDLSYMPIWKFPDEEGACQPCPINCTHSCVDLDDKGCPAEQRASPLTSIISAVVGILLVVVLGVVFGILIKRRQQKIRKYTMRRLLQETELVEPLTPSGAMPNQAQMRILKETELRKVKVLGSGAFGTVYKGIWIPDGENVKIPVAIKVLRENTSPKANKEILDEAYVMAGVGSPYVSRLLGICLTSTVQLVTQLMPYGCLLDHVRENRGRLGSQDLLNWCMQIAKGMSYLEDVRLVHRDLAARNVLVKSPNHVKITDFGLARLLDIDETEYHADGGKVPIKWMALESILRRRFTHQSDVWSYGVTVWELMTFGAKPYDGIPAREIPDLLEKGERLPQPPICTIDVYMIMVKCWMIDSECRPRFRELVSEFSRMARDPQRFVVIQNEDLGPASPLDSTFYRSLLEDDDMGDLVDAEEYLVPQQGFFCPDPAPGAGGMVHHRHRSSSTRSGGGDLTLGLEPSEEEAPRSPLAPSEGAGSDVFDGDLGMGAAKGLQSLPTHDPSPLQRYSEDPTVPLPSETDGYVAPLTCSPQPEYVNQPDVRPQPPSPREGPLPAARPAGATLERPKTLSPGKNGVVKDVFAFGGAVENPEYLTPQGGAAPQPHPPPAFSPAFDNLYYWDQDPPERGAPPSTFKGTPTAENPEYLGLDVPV

Ephrin type-B receptor 4 = target: T1, Ephrin type-B receptor 4 (Homo sapiens, UniProt P54760); assay: Inhibition of recombinant human N-terminal His6-tagged EphB4 kinase domain (E605 to E890 residues) expressed in baculovirus using poly-AEKY as substrate after 150 mins in presence of gamma33P-ATP by liquid scintillation spectrometry
T1 sequence (P54760 whole entry): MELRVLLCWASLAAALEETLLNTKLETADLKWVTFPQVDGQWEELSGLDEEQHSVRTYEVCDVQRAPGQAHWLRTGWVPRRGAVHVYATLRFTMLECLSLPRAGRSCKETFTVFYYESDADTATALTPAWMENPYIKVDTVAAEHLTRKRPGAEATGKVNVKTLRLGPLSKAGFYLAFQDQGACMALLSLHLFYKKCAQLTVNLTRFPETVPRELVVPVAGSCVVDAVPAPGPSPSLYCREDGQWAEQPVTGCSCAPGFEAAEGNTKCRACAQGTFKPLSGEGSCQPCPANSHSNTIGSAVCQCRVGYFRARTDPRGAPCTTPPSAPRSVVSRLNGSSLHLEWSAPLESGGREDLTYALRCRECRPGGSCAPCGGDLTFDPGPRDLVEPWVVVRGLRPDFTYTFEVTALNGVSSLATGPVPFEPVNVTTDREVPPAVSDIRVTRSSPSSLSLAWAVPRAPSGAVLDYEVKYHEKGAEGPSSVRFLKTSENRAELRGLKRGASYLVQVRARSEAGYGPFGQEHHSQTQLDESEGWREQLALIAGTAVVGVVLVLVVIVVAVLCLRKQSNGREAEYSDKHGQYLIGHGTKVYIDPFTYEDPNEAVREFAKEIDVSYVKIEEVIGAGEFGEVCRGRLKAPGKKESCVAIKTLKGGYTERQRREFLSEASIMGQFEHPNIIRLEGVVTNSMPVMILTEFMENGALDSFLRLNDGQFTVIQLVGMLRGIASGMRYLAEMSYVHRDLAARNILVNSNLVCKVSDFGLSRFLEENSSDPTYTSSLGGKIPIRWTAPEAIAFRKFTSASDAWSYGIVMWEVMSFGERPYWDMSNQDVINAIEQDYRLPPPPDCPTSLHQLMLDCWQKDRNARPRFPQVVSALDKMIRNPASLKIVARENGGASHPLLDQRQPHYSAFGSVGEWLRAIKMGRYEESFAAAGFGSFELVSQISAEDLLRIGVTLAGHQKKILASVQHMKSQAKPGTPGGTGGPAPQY

Chain of Ephrin type-A receptor 2 (P29317 whole entry, the tested form may be a part): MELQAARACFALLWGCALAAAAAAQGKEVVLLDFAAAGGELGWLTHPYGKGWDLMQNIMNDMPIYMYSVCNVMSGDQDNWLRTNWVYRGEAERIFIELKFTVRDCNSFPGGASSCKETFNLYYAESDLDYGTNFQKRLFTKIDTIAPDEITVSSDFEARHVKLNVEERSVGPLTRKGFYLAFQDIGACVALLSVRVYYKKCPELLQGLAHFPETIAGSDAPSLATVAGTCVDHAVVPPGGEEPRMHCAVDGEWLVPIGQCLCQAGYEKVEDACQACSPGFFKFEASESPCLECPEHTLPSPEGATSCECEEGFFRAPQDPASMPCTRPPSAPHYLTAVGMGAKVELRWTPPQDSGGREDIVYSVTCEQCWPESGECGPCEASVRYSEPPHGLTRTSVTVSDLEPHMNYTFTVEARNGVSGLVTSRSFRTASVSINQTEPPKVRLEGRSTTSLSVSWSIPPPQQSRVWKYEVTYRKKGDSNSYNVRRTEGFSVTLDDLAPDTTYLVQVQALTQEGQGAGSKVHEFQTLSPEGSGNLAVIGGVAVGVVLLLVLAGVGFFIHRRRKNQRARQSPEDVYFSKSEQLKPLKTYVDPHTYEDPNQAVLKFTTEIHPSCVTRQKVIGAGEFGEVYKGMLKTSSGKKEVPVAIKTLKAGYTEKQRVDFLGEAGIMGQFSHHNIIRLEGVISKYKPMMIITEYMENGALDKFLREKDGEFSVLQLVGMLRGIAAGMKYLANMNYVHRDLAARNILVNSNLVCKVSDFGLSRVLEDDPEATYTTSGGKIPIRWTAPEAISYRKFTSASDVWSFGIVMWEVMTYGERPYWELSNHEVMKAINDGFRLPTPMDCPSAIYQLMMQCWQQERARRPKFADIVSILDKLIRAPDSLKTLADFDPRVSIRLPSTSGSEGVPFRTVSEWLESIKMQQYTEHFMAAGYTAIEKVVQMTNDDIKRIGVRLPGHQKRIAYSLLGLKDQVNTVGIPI

| Structure (SMILES) | IC50 (Ephrin type-A receptor 2) [nM] | IC50 [1] [nM] | IC50 [2] [nM] | IC50 (Ephrin type-B receptor 4) [nM] |
| --- | --- | --- | --- | --- |
| COc1cc2c(Nc3ccc(Br)c(Cl)c3)ncnc2cc1O[C@@H]1CCOC1 | 1000 to 20000 | 50 to 1000 | 50 to 1000 | 50 to 1000 |
| COc1cc2c(Nc3ccc(Cl)c(Cl)c3)ncnc2cc1OCC1CN(C(=O)C2CCCC2)CCO1 (configuration not stated) | 50 to 1000 | 50 to 1000 | < 50 | < 50 |
| COc1cc2c(Nc3ccc(Br)c(Cl)c3)ncnc2cc1O[C@H]1CO[C@H]2[C@@H]1OC[C@@H]2O | 1000 to 20000 | 1000 to 20000 | 50 to 1000 | 50 to 1000 |
| CCC(=O)N1CCOC(COc2cc3ncnc(Nc4ccc(Cl)c(Cl)c4)c3cc2OC)C1 (configuration not stated) | 50 to 1000 | 50 to 1000 | < 50 | < 50 |
| COc1cc2c(Nc3ccc(Br)c(Cl)c3F)ncnc2cc1OCC1CN(C)CCO1 (configuration not stated) | < 50 | < 50 | < 50 | < 50 |
| COc1cc2c(Nc3ccc(Br)c(Cl)c3)ncnc2cc1O[C@H]1CO[C@H]2[C@@H]1OC[C@@H]2OC(C)=O | 1000 to 20000 | 1000 to 20000 | 1000 to 20000 | 50 to 1000 |
| COc1cc2c(Nc3ccc(Cl)c(Cl)c3N3CCN(C)CC3)ncnc2cc1O[C@H]1CO[C@H]2[C@@H]1OC[C@@H]2F | 1000 to 20000 | 1000 to 20000 | 1000 to 20000 | 1000 to 20000 |
| COc1cc2c(Nc3ccc(Cl)c(Cl)c3)ncnc2cc1OCCC1CN(C)CC(C)(C)O1 (configuration not stated) | 1000 to 20000 | 50 to 1000 | 50 to 1000 | 50 to 1000 |
| COc1cc2c(Nc3ccc(Cl)c(Cl)c3)ncnc2cc1OCC1CN(C(C)=O)CCCO1 (configuration not stated) | 50 to 1000 | 50 to 1000 | < 50 | < 50 |
| COc1cc2c(Nc3ccc(Br)c(Cl)c3)ncnc2cc1O[C@H]1CO[C@H]2[C@@H]1OC[C@@H]2SC | 1000 to 20000 | 1000 to 20000 | 1000 to 20000 | 50 to 1000 |
| COc1cc2c(Nc3ccc(Cl)c(Cl)c3)ncnc2cc1OCc1nc2c(s1)CN(C)CC2 | 50 to 1000 | 50 to 1000 | < 50 | < 50 |
| COc1cc2c(Nc3ccc(Br)c(F)c3F)ncnc2cc1OCC1CN(C)CCO1 (configuration not stated) | 50 to 1000 | < 50 | 50 to 1000 | 50 to 1000 |
| COc1cc2c(Nc3ccc(N4CCN(C)CC4)c(Cl)c3Cl)ncnc2cc1O[C@H]1CO[C@H]2[C@@H]1OC[C@@H]2F | 1000 to 20000 | 1000 to 20000 | 1000 to 20000 | 1000 to 20000 |
| CC(C)Oc1cc2c(Nc3ccc(Cl)c(Cl)c3)ncnc2cc1OCC1CNCCO1 (configuration not stated) | < 50 | < 50 | < 50 | < 50 |
| CCOc1cc2c(Nc3ccc(Cl)c(Cl)c3)ncnc2cc1OCC1CN(C)CCO1 (configuration not stated) | < 50 | < 50 | < 50 | < 50 |
| COc1cc2c(Nc3ccc(Br)c(Cl)c3)ncnc2cc1O[C@H]1CO[C@H]2[C@@H]1OC[C@@H]2N1CCN(C)CC1 | 1000 to 20000 | 1000 to 20000 | 1000 to 20000 | 50 to 1000 |
| COc1cc2c(Nc3ccc(Cl)c(Cl)c3)ncnc2cc1OCC1CN(C(N)=NC#N)CCO1 (configuration not stated) | < 50 | < 50 | < 50 | < 50 |
| COc1cc2c(Nc3ccc(Br)c(Cl)c3F)ncnc2cc1OCC1CN(C)C(C)(C)CO1 (configuration not stated) | < 50 | < 50 | < 50 | < 50 |
| COc1cc2c(Nc3ccc(Cl)c(Cl)c3)ncnc2cc1OCC1CN(S(C)(=O)=O)CCCO1 (configuration not stated) | 50 to 1000 | 50 to 1000 | < 50 | < 50 |

| Structure (SMILES) | IC50 (Ephrin type-A receptor 2) [nM] | IC50 [1] [nM] | IC50 [2] [nM] | IC50 (Ephrin type-B receptor 4) [nM] |
| --- | --- | --- | --- | --- |
| COc1cc2c(Nc3ccc(Br)c(Cl)c3Cl)ncnc2cc1OCC1CN(C)CCO1 (configuration not stated) | 50 to 1000 | 50 to 1000 | 50 to 1000 | < 50 |
| CCN(CC)[C@H]1CO[C@H]2[C@@H]1OC[C@@H]2Oc1cc2ncnc(Nc3ccc(Br)c(Cl)c3)c2cc1OC | 1000 to 20000 | 50 to 1000 | 1000 to 20000 | 50 to 1000 |
| COc1cc2c(Nc3ccc(Br)c(Cl)c3F)ncnc2cc1OC[C@@H]1CN(C)CC(=O)N1C | 50 to 1000 | 50 to 1000 | 1000 to 20000 | 50 to 1000 |
| COc1cc2c(Nc3ccc(Cl)c(Cl)c3)ncnc2cc1OCC1CN(S(C)(=O)=O)CCO1 (configuration not stated) | < 50 | 50 to 1000 | < 50 | < 50 |
| COc1cc2c(Nc3cc(F)c(Br)cc3F)ncnc2cc1OCC1CN(C)CCO1 (configuration not stated) | 50 to 1000 | < 50 | 50 to 1000 | 50 to 1000 |
| COc1cc2c(Nc3cc(Cl)c(Cl)cc3F)ncnc2cc1OCC1CN(C)C(C)(C)CO1 (configuration not stated) | < 50 | < 50 | < 50 | < 50 |
| CCCCN1CCOC(COc2cc3ncnc(Nc4ccc(Cl)c(Cl)c4)c3cc2OC)C1 (configuration not stated) | 50 to 1000 | < 50 | 50 to 1000 | < 50 |
| CCN1CCc2nc(COc3cc4ncnc(Nc5ccc(Cl)c(Cl)c5)c4cc3OC)sc2C1 | 50 to 1000 | 50 to 1000 | < 50 | < 50 |
| COc1cc2c(Nc3ccc(Br)c(Cl)c3)ncnc2cc1OC1CCN(C)C1 (configuration not stated) | 1000 to 20000 | 50 to 1000 | 1000 to 20000 | 50 to 1000 |
| COc1cc2c(Nc3ccc(Br)c(Cl)c3Cl)ncnc2cc1OCC1CN(C)C(C)(C)CO1 (configuration not stated) | < 50 | 50 to 1000 | 50 to 1000 | < 50 |
| COc1cc2c(Nc3ccc(N4CCN(C)CC4)cc3)ncnc2cc1O[C@H]1CO[C@H]2[C@@H]1OC[C@@H]2F | 1000 to 20000 | 1000 to 20000 | 1000 to 20000 | 1000 to 20000 |
| COc1cc2c(Nc3ccc(Br)c(Cl)c3)ncnc2cc1O[C@H]1CO[C@H]2[C@@H]1OC[C@@H]2N1CCOCC1 | 1000 to 20000 | 1000 to 20000 | 1000 to 20000 | 50 to 1000 |
| COc1cc2c(Nc3ccc(Br)c(Cl)c3C)ncnc2cc1OCC1CN(C)CCO1 (configuration not stated) | 50 to 1000 | 50 to 1000 | 50 to 1000 | 50 to 1000 |
| COc1cc2c(Nc3ccc(Cl)c(Cl)c3)ncnc2cc1OCCC1CN(C)C(C)(C)CO1 (configuration not stated) | 50 to 1000 | 50 to 1000 | 50 to 1000 | 50 to 1000 |
| COc1cc2c(Nc3ccc(Br)c(Cl)c3)ncnc2cc1O[C@H]1CO[C@H]2[C@@H]1OC[C@@H]2N | 1000 to 20000 | 1000 to 20000 | 1000 to 20000 | 50 to 1000 |
| COc1cc2c(Nc3ccc(Cl)c(Cl)c3)ncnc2cc1OCc1csc(N2CCN(C)CC2)n1 | 50 to 1000 | 50 to 1000 | 50 to 1000 | 50 to 1000 |
| COc1cc2c(Nc3ccc(Cl)c(Cl)c3F)ncnc2cc1OC[C@@H]1CN(C)CC(=O)N1C | 50 to 1000 | 50 to 1000 | 1000 to 20000 | 50 to 1000 |
| COc1cc2c(Nc3ccc(Br)c(Cl)c3)ncnc2cc1O[C@H]1CO[C@H]2[C@@H]1OC[C@@H]2S(C)(=O)=O | 1000 to 20000 | 1000 to 20000 | 50 to 1000 | 50 to 1000 |
| COc1cc2c(Nc3ccc(Cl)c(Cl)c3)ncnc2cc1OCC1CN(C(=O)c2cccnc2Cl)CCO1 (configuration not stated) | 50 to 1000 | < 50 | < 50 | < 50 |
